Measurements: patent publication US7138491B2, “Carboline-3-carboxylic acid modified related sequences of Ala-Arg-Pro-Ala-Lys, their synthesis and use as thromobolytic agent” (Guangzhou Bai Yun Shan Pharmaceutical Co., Ltd., priority 2003, dated 2006)
Marks after values point to notes of the source that are not given here. Ends that are not written are not given here.

Experiments:
thrombus = experiment: In vivo thrombolytic activity, thrombus on steel helix in extracorporeal circulation; settings: male Wistar rats; injected; dose differs per compound (3.1-8.2 mg/kg; UK 20000 IU); blood circulated 90 min; n = 10; NS control 12.31 ± 2.57
Experimental: Male Wistar rats weighing 200–300 g (purchased from Animal Center of Peking University) were anesthetized with pentobarbital sodium (80.0 mg/kg, ip). The right carotid artery and left vein jugular of the animals were separated. To the glass tube filled with artery blood (1.0 ml) from the right carotid artery of the animal a stainless steel filament helix (15 circles; L, 15 mm; D, 1.0 mm) was put immediately. After 15 minutes the helix with thrombus was carefully taken out and weighted exactly, which was put into the middle polyethylene tube. The polyethylene tube was full with heparin sodium (50 IU/ml of NS) and one end was inserted into the left jugular vein. Heparin sodium was injected via the other end of the polyethylene tube as the anticoagulant, following which the tested pseudopeptide was injected. The blood was circulated through the polyethylene tube for 90 min, after which the helix was taken out and weighted accurately.

[1] = test system: rabbit euglobulin fraction; experiment: In vitro euglobulin clot lysis time (ECLT); format: biochemical; settings: dosage differs per compound (1.3-6.7 μg; UK 5 IU); 96 well microtiter plate; n = 6; NS control 200.01 ± 15.26
Experimental: The rabbit euglobulin fraction was prepared according to the literature^[6]. Plasma diluted […] in distilled water was precipitated at pH 5.7 with acetic acid (0.25%). After 30 min at 4° C. the suspension was centrifuged at 2000 g for 15 min and the precipitate was resuspended to the initial plasma volume with 50 mM barbital buffer (pH 7.8, contained 1.66 mM of CaCl2, 0.68 mM of MgCl2 and 93.96 mM of NaCl). Euglobulin clot lysis time (ECLT) of the tested pseudopeptide was measured using a 96 well microtiter plate^[7] and the data are listed in Table 2.

fibrin plate = experiment: In vitro fibrinolytic lysis on fibrin plate (fibrinogen-agarose); format: biochemical, rabbit; settings: dosage per well differs per compound (0.8-2.2 μg; UK 5 IU); n = 6; NS control 21.01 ± 9.26
Experimental: The plates were prepared by mixing equal volumes of 0.3% rabbit fibrinogen and 0.95% agarose solutions, both dissolved in 50 mM of barbital buffer (pH 7.8, contained 1.66 mM of CaCl2, 0.68 mM of MgCl2 and 93.96 mM of NaCl)^[6]. The fibrinogen-agarose mixture was coagulated with […] thrombin (100 IU: ml) in the plastic dishes (its diameter is 90 mm and the depth of the fibrin plate is 1 mm). After 30 min at 4° C. an adequate number of wells, 5 mm in diameter, were perforated. To determine fibrinolytic activity […] aliquots of the tested pseudopeptides were added to each well, the plate was incubated, and areas of lysis were quantified as described for the regular fibrin plates.

Substance | The reduction of thrombolytic mass, x ± SD (thrombus) | Euglobulin clot lysis time, x ± SD [1] | Effect of the pseudopeptides on fibrin plate, areas of lysis, x ± SD (fibrin plate)
3S-1,2,3,4-tetrahydro-β-carboline-3-carboxyl-Ala-Arg-Pro-Ala-Lys-OH (ARPAK-OH; not fully specified (N-terminus); printed as 3S-1,2,3,4-tetrahydro-β-carboline-3-carboxyl-Ala-Arg-Pro-Ala-Lys-OH) [compound 11] | 14.01 ± 2.61 mg | 204.01 ± 32.61 min | 24.10 ± 10.16 mm^2
3S-1,2,3,4-tetrahydro-β-carboline-3-carboxyl-Ala-Arg-Pro-Ala-OH (ARPA-OH; not fully specified (N-terminus); printed as 3S-1,2,3,4-tetrahydro-β-carboline-3-carboxyl-Ala-Arg-Pro-Ala-OH) [compound 17] | 13.55 ± 2.47 mg | 213.55 ± 30.47 min | 23.44 ± 10.18 mm^2
3S-1,2,3,4-tetrahydro-β-carboline-3-carboxyl-Ala-Arg-Pro-OH [compound 18] | 13.66 ± 2.44 mg | 203.66 ± 30.44 min | 23.88 ± 10.04 mm^2
3S-1,2,3,4-tetrahydro-β-carboline-3-carboxyl-Arg-Arg-Pro-Ala-Lys-OH (RRPAK-OH; not fully specified (N-terminus); printed as 3S-1,2,3,4-tetrahydro-β-carboline-3-carboxyl-Arg-Arg-Pro-Ala-Lys-OH) [compound 26] | 14.80 ± 2.96 mg | 214.80 ± 32.96 min | 24.00 ± 12.01 mm^2
3S-1,2,3,4-tetrahydro-β-carboline-3-carboxyl-Arg-Pro-Ala-Lys-OH (RPAK-OH; not fully specified (N-terminus); printed as 3S-1,2,3,4-tetrahydro-β-carboline-3-carboxyl-Arg-Pro-Ala-Lys-OH) [compound 19] | 13.56 ± 2.45 mg | 213.56 ± 29.95 min | 20.33 ± 9.28 mm^2
3S-1,2,3,4-tetrahydro-β-carboline-3-carboxyl-Asn-Arg-Pro-Ala-Lys-OH (NRPAK-OH; not fully specified (N-terminus); printed as 3S-1,2,3,4-tetrahydro-β-carboline-3-carboxyl-Asn-Arg-Pro-Ala-Lys-OH) [compound 15] | 13.12 ± 2.47 mg | 213.12 ± 29.47 min | 23.21 ± 9.74 mm^2
3S-1,2,3,4-tetrahydro-β-carboline-3-carboxyl-Gln-Arg-Pro-Ala-Lys-OH (QRPAK-OH; not fully specified (N-terminus); printed as 3S-1,2,3,4-tetrahydro-β-carboline-3-carboxyl-Gln-Arg-Pro-Ala-Lys-OH) [compound 14] | 12.98 ± 2.42 mg | 212.98 ± 28.42 min | 22.89 ± 10.02 mm^2
3S-1,2,3,4-tetrahydro-β-carboline-3-carboxyl-Gly-Arg-Pro-Ala-Lys-OH (GRPAK-OH; not fully specified (N-terminus); printed as 3S-1,2,3,4-tetrahydro-β-carboline-3-carboxyl-Gly-Arg-Pro-Ala-Lys-OH) [compound 12] | 13.35 ± 2.47 mg | 213.35 ± 29.47 min | 23.53 ± 9.74 mm^2
3S-1,2,3,4-tetrahydro-β-carboline-3-carboxyl-Lys-Arg-Pro-Ala-Lys-OH (KRPAK-OH; not fully specified (N-terminus); printed as 3S-1,2,3,4-tetrahydro-β-carboline-3-carboxyl-Lys-Arg-Pro-Ala-Lys-OH) [compound 13] | 14.11 ± 2.67 mg | 214.11 ± 32.67 min | 24.01 ± 10.05 mm^2
3S-1,2,3,4-tetrahydro-β-carboline-3-carboxyl-Pro-Ala-Lys-OH [compound 20] | 13.31 ± 0.0257 mg | 209.31 ± 31.57 min | 19.41 ± 11.71 mm^2
3S-(2-Ala-Arg-Pro)-1,2,3,4-tetrahydro-β-carboline-3-carboxylic acid [compound 28] | 13.23 ± 2.58 mg | 213.23 ± 31.58 min | 21.21 ± 11.11 mm^2
3S-(2-Ala-Arg-Pro-Ala)-1,2,3,4-tetrahydro-β-carboline-3-carboxylic acid (ARPA; not fully specified (C-terminus)) [compound 27] | 13.89 ± 2.67 mg | 203.89 ± 29.67 min | 23.32 ± 9.99 mm^2
3S-(2-Ala-Arg-Pro-Ala-Lys)-1,2,3,4-tetrahydro-β-carboline-3-carboxylic acid (ARPAK; not fully specified (C-terminus)) [compound 21] | 19.7 ± 3.71^2) mg | 119.70 ± 23.71^a min | 119.70 ± 10.71^a mm^2
3S-(2-Arg-Arg-Pro-Ala-Lys)-1,2,3,4-tetrahydro-β-carboline-3-carboxylic acid (RRPAK; not fully specified (C-terminus)) [compound 16] | 14.11 ± 2.87 mg | 204.11 ± 32.87 min | 24.19 ± 10.08 mm^2
3S-(2-Arg-Pro-Ala-Lys)-1,2,3,4-tetrahydro-β-carboline-3-carboxylic acid (RPAK; not fully specified (C-terminus)) [compound 29] | 24.40 ± 2.51^a,d mg | 104.40 ± 27.51^a min | 126.55 ± 9.98^a mm^2
3S-(2-Asn-Arg-Pro-Ala-Lys)-1,2,3,4-tetrahydro-β-carboline-3-carboxylic acid (NRPAK; not fully specified (C-terminus)) [compound 25] | 17.27 ± 3.57^2) mg | 217.27 ± 30.57 min | 20.84 ± 10.77 mm^2
3S-(2-Gln-Arg-Pro-Ala-Lys)-1,2,3,4-tetrahydro-β-carboline-3-carboxylic acid (QRPAK; not fully specified (C-terminus)) [compound 24] | 22.88 ± 9.21^1) mg | 96.88 ± 29.21^1a min | 133.89 ± 9.99^a mm^2
3S-(2-Gly-Arg-Pro-Ala-Lys)-1,2,3,4-tetrahydro-β-carboline-3-carboxylic acid (GRPAK; not fully specified (C-terminus)) [compound 22] | 24.02 ± 5.21^1) mg | 98.02 ± 25.21^a min | 125.90 ± 11.15^a mm^2
3S-(2-Lys-Arg-Pro-Ala-Lys)-1,2,3,4-tetrahydro-β-carboline-3-carboxylic acid (KRPAK; not fully specified (C-terminus)) [compound 23] | 13.98 ± 2.45 mg | 213.98 ± 29.45 min | 19.87 ± 9.58 mm^2
3S-(2-Pro-Ala-Lys)-1,2,3,4-tetrahydro-β-carboline-3-carboxylic acid [compound 30] | 26.56 ± 2.42^b mg | 96.56 ± 30.42^a min | 139.39 ± 9.52^a mm^2
H-ARPAK-OH [compound 1, H-Ala-Arg-Pro-Ala-Lys-OH] | 18.84 ± 3.18^1)2) mg | 90.12 ± 17.64^a,b min | 119.12 ± 12.44^a mm^2
H-Ala-Arg-Pro-Ala-OH (H-ARPA-OH) [compound 10] | 14.01 ± 2.26 mg | 214.01 ± 28.26 min | 31.01 ± 9.26 mm^2
